Converted amounts (≈) assume the structure as drawn. The source made the active and inactive calls. No cut-off for these calls is given here.
Tests used:
[1] = tested on: Aspergillus flavus; assay: Antifungal activity against Aspergillus flavus after 72 to 96 hr by two-fold serial dilution method; type: functional
[2] = tested on: Aspergillus niger; assay: Antifungal activity against Aspergillus niger after 72 to 96 hr by two-fold serial dilution method; type: functional
[3] = tested on: Rhizopus; assay: Antifungal activity against Rhizopus sp. after 72 to 96 hr by two-fold serial dilution method; type: functional
[4] = tested on: Candida albicans; assay: Antifungal activity against Candida albicans after 72 to 96 hr by two-fold serial dilution method; type: functional
[5] = tested on: Cryptococcus neoformans; assay: Antifungal activity against Cryptococcus neoformans after 72 to 96 hr by two-fold serial dilution method; type: functional
[6] = tested on: Salmonella typhi; assay: Antibacterial activity against Salmonella enterica subsp. enterica serovar Typhi after 24 hr by twofold serial dilution method; type: functional
[7] = tested on: Pseudomonas aeruginosa; assay: Antibacterial activity against Pseudomonas aeruginosa after 24 hr by twofold serial dilution method; type: functional
[8] = tested on: Escherichia coli; assay: Antibacterial activity against Escherichia coli after 24 hr by two-fold serial dilution method; type: functional
[9] = tested on: Bacillus subtilis; assay: Antibacterial activity against Bacillus subtilis after 24 hr by two-fold serial dilution method; type: functional
[10] = tested on: Staphylococcus aureus; assay: Antibacterial activity against Staphylococcus aureus after 24 hr by two-fold serial dilution method; type: functional
[11] = tested on: Aspergillus flavus; assay: Antifungal activity against Aspergillus flavus assessed as growth inhibition at 200 ug/mL after 72 to 96 hr by two-fold serial dilution method; type: functional, organism-based
[12] = tested on: Aspergillus niger; assay: Antifungal activity against Aspergillus niger assessed as growth inhibition at 200 ug/mL after 72 to 96 hr by two-fold serial dilution method; type: functional, organism-based
[13] = tested on: Rhizopus; assay: Antifungal activity against Rhizopus sp. assessed as growth inhibition at 200 ug/mL after 72 to 96 hr by two-fold serial dilution method; type: functional, organism-based
[14] = tested on: Cryptococcus neoformans; assay: Antifungal activity against Cryptococcus neoformans assessed as growth inhibition at 200 ug/mL after 72 to 96 hr by two-fold serial dilution method; type: functional, organism-based
[15] = tested on: Escherichia coli; assay: Antibacterial activity against Escherichia coli assessed as growth inhibition at 200 ug/mL after 24 hr by two-fold serial dilution method; type: functional, organism-based
[16] = tested on: Bacillus subtilis; assay: Antibacterial activity against Bacillus subtilis assessed as growth inhibition at 200 ug/mL after 24 hr by two-fold serial dilution method; type: functional, organism-based

Structure (SMILES)	MIC [1] [µg/mL]	MIC [2] [µg/mL]	MIC [3] [µg/mL]	MIC [4] [µg/mL]	MIC [5] [µg/mL]	MIC [6] [µg/mL]	MIC [7] [µg/mL]	MIC [8] [µg/mL]	MIC [9] [µg/mL]	MIC [10] [µg/mL]	growth inhibition (GI) [11]	growth inhibition (GI) [12]	growth inhibition (GI) [13]	growth inhibition (GI) [14]	growth inhibition (GI) [15]	growth inhibition (GI) [16]
CC1C(=O)C(C)C(c2ccc(Cl)cc2)N(C(=O)CCl)C1c1ccc(Cl)cc1 (configuration not stated)	100 (≈ 235 µM)	50 (≈ 118 µM)	100 (≈ 235 µM)	200 (≈ 471 µM)	50 (≈ 118 µM)	25 (≈ 58.9 µM)	100 (≈ 235 µM)	50 (≈ 118 µM)	100 (≈ 235 µM)	12.5 (≈ 29.4 µM)	–	–	–	–	–	–
CN[C@@H]1[C@H](O[C@H]2[C@H](O[C@H]3[C@H](O)[C@@H](O)[C@H](N=C(N)N)[C@@H](O)[C@@H]3N=C(N)N)O[C@@H](C)[C@]2(O)C=O)O[C@@H](CO)[C@H](O)[C@H]1O [STREPTOMYCIN]	–	–	–	–	–	25 (≈ 43 µM)	50 (≈ 86 µM)	50 (≈ 86 µM)	12.5 (≈ 21.5 µM)	25 (≈ 43 µM)	–	–	–	–	–	–
CC(C)C1C(=O)CC(c2ccccc2)N(C(=O)CCl)C1c1ccccc1 (configuration not stated)	–	100 (≈ 270 µM)	100 (≈ 270 µM)	50 (≈ 135 µM)	200 (≈ 541 µM)	100 (≈ 270 µM)	200 (≈ 541 µM)	200 (≈ 541 µM)	200 (≈ 541 µM)	100 (≈ 270 µM)	inactive	–	–	–	–	–
Cc1ccc(C2CC(=O)C(C)C(c3ccc(C)cc3)N2C(=O)CCl)cc1 (configuration not stated)	12.5 (≈ 33.8 µM)	12.5 (≈ 33.8 µM)	50 (≈ 135 µM)	50 (≈ 135 µM)	25 (≈ 67.6 µM)	50 (≈ 135 µM)	100 (≈ 270 µM)	25 (≈ 67.6 µM)	12.5 (≈ 33.8 µM)	100 (≈ 270 µM)	–	–	–	–	–	–
O=C(O)c1cn(C2CC2)c2cc(N3CCNCC3)c(F)cc2c1=O [CIPROFLOXACIN]	–	–	–	–	–	50 (≈ 151 µM)	–	25 (≈ 75.4 µM)	–	–	–	–	–	–	–	–
COc1ccc(C2C(C)C(=O)C(C)C(c3ccc(OC)cc3)N2C(=O)CCl)cc1 (configuration not stated)	50 (≈ 120 µM)	25 (≈ 60.1 µM)	100 (≈ 240 µM)	100 (≈ 240 µM)	100 (≈ 240 µM)	25 (≈ 60.1 µM)	100 (≈ 240 µM)	100 (≈ 240 µM)	50 (≈ 120 µM)	50 (≈ 120 µM)	–	–	–	–	–	–
Cc1ccc(C2C(C)C(=O)C(C)C(c3ccc(C)cc3)N2C(=O)CCl)cc1 (configuration not stated)	50 (≈ 130 µM)	100 (≈ 260 µM)	25 (≈ 65.1 µM)	50 (≈ 130 µM)	50 (≈ 130 µM)	100 (≈ 260 µM)	200 (≈ 521 µM)	50 (≈ 130 µM)	100 (≈ 260 µM)	200 (≈ 521 µM)	–	–	–	–	–	–
C[C@@H]1[C@H](O)[C@@H](C)/C=C/C=C/C=C/C=C/C=C/C=C/C=C/[C@H](O[C@@H]2O[C@H](C)[C@@H](O)[C@H](N)[C@@H]2O)C[C@@H]2O[C@](O)(C[C@@H](O)C[C@@H](O)[C@H](O)CC[C@@H](O)C[C@@H](O)CC(=O)O[C@H]1C)C[C@H](O)[C@H]2C(=O)O [AMPHOTERICIN B]	50 (≈ 54.1 µM)	50 (≈ 54.1 µM)	25 (≈ 27.1 µM)	25 (≈ 27.1 µM)	25 (≈ 27.1 µM)	–	–	–	–	–	–	–	–	–	–	–
O=C1CC(c2ccccc2)N(C(=O)CCl)C(c2ccccc2)C1 (configuration not stated)	100 (≈ 305 µM)	–	–	200 (≈ 610 µM)	–	50 (≈ 153 µM)	100 (≈ 305 µM)	–	–	200 (≈ 610 µM)	–	inactive	inactive	inactive	inactive	inactive
CC1C(=O)CC(c2ccccc2)N(C(=O)CCl)C1c1ccccc1 (configuration not stated)	200 (≈ 585 µM)	200 (≈ 585 µM)	100 (≈ 293 µM)	200 (≈ 585 µM)	100 (≈ 293 µM)	50 (≈ 146 µM)	200 (≈ 585 µM)	100 (≈ 293 µM)	100 (≈ 293 µM)	100 (≈ 293 µM)	–	–	–	–	–	–
CC1C(=O)CC(c2ccc(Cl)cc2)N(C(=O)CCl)C1c1ccc(Cl)cc1 (configuration not stated)	25 (≈ 60.9 µM)	50 (≈ 122 µM)	25 (≈ 60.9 µM)	100 (≈ 243 µM)	100 (≈ 243 µM)	100 (≈ 243 µM)	12.5 (≈ 30.4 µM)	25 (≈ 60.9 µM)	100 (≈ 243 µM)	50 (≈ 122 µM)	–	–	–	–	–	–
CCC1C(=O)CC(c2ccc(Cl)cc2)N(C(=O)CCl)C1c1ccc(Cl)cc1 (configuration not stated)	25 (≈ 58.9 µM)	12.5 (≈ 29.4 µM)	50 (≈ 118 µM)	100 (≈ 235 µM)	50 (≈ 118 µM)	12.5 (≈ 29.4 µM)	50 (≈ 118 µM)	50 (≈ 118 µM)	25 (≈ 58.9 µM)	25 (≈ 58.9 µM)	–	–	–	–	–	–
COc1ccc(C2CC(=O)C(C)C(c3ccc(OC)cc3)N2C(=O)CCl)cc1 (configuration not stated)	50 (≈ 124 µM)	50 (≈ 124 µM)	25 (≈ 62.2 µM)	100 (≈ 249 µM)	100 (≈ 249 µM)	100 (≈ 249 µM)	50 (≈ 124 µM)	100 (≈ 249 µM)	200 (≈ 498 µM)	25 (≈ 62.2 µM)	–	–	–	–	–	–

— ChEMBL document CHEMBL3046827, “Synthesis and antimicrobial activities of N-chloroacetyl-2,6-diarylpiperidin-4-ones” (2007)
